Tested on: MC-38 tumors
Experiment: Anti-tumor efficacy of Compound 1 in the subcutaneous MC-38 model: schedule comparison (Example 3)
Assay type: in vivo, Mus musculus
Protocol: Female C57BL/6 mice were inoculated subcutaneously at right flank with MC-38 cells for tumor development. Six days after tumor inoculation, 64 mice with tumor size ranging from 50-100 mm^3 (average tumor size 71 mm^3) were selected and assigned into 8 groups using stratified randomization with 8 mice per group based upon their tumor volumes. The treatments were started from the day of randomization (defined as D0), Group 1 was treated with Vehicle (Tween 80:Ethanol:Saline—5:5:90 v/v/v), S.C. QD*20 days, Group 2 was treated with Compound 1 at 1 mpk S.C. QD*28 days, Group 3 was treated with Compound 1 at 0.5 mpk S.C. QD*28 days, Group 4 was treated with Compound 1 at 1.4 mpk S.C. 5-days ON 2-days OFF×4 cycles, Group 5 was treated with Compound 1 at 0.7 mpk S.C. 5-days ON 2-days OFF×4 cycles, Group 6 was treated with Compound 1 at 3 mpk qd×5, followed by 1 mpk qd×23, S.C. QD, Group 7 was treated with Compound 1 at 1.5 mpk qd×5, followed by 0.5 mpk qd×23, S.C. QD and Group 8 was treated with Compound 1 at 1.4 mpk 10-days ON 4-days OFF×2 cycles, S.C.
Species: Mus musculus; Strain: C57BL/6; Age: 6-8 weeks; Sex: female; Body weight (at treatment start): 16-20 g.
The MC-38 tumor cells were maintained in vitro as a monolayer culture in DMEM medium supplemented with 10% heat inactivated fetal bovine serum and 100 μg/mL penicillin streptomycin at 37° C. in an atmosphere of 5% CO2 in air. The tumor cells were routinely subcultured twice weekly by trypsin-EDTA treatment. The cells growing to a confluency around 70%-80% were harvested and counted for tumor inoculation. The cultured MC-38 were harvested, re-suspended in base medium at a density of 1×10^7 cells/mL with viability>90%. Each mouse was inoculated subcutaneously at the right flank with 1×10^6 cells in 0.1 ml base medium for tumor development.
The treatments were started on day 6 after tumor inoculation when the tumor size reached 50-100 mm^3 (average tumor size 71 mm^3). Each group consisted of 8 tumor-bearing mice. The testing article was administrated to the mice at a dosing volume of 10 mL/Kg according to the predetermined regimen as shown in Table 3-1.
Tumor sizes were measured three times a week in two dimensions using a caliper, and the volume expressed in mm^3 using the formula: V=0.5 a×b^2 where a and b are the long and short diameters of the tumor, respectively. The tumor sizes were then used for the calculations of both tumor growth inhibition (TGI) and T/C values.
TGI is calculated for each group using the formula: […]
TVTreatment_DayN is the average tumor volume of a treatment group on a given day, TVTreatment_Day0 is the average tumor volume of the treatment group on the first day of treatment, TVVehicle_DayN is the average tumor volume of the vehicle control group on a given day, and TVVehicle_Day0 is the average tumor volume of the vehicle group on the first day of treatment.
The T/C value (in percent) is an indication of antitumor effectiveness, T/C (%)=RTVTreatment/RTVControl×100% (RTVTreatment: the mean RTV of the treatment group; RTVControl: the mean RTV of the vehicle treated group). RTV (relative tumor volume)=TVDayN/TVDay0. TVDayN and TVDay0 is the tumor volume on day N and Day 0 respectively. T/C (%)≤42% is considered as significant antitumor activity and <10% is considered as highly significant antitumor activity by the National Cancer Institute criteria.
Relative change of body weight (RCBW) of each mouse was calculated according to the following formula: […]
Animal survival curve: When an individual animal reached to the termination endpoint (TV>2000 mm^3), the mouse was euthanized. The time from treatment initiation to the termination was deemed as its survival time. Survival curve was plotted by Kaplan-Meier method. Median survival time (MST) was calculated for each group. Increase of life span (ILS) was calculated according to the following formula: […]
ILS (%)>25% is considered as a biologically significant survival benefit. […]

CC(=O)N[C@@H](Cc1c[nH]c2ccccc12)C(=O)N[C@@H](CCC(=O)C=[N+]=[N-])C(=O)OC(C)C [Compound 1, Isopropyl (S)-2-((S)-2-acetamido-3-(1H-indol-3-yl)propanamido)-6-diazo-5-oxohexanoate]
Tumor volume (Mean ± SEM) (Day 20, Group 3: 0.5 mg/kg qdx28, sc): 7 ± 1 mm^3
Tumor volume (Mean ± SEM) (Day 20, Group 4: 1.4 mg/kg 5-days ON 2-days OFF x 4 cycles, sc): 0 ± 0 mm^3
Tumor volume (Mean ± SEM) (Day 20, Group 5: 0.7 mg/kg 5-days ON 2-days OFF x 4 cycles, sc): 2 ± 1 mm^3
Tumor volume (Mean ± SEM) (Day 20, Group 6: 3 mpk qdx5 followed by 1 mpk qdx23, sc): 5 ± 2 mm^3
Tumor volume (Mean ± SEM) (Day 20, Group 7: 1.5 mpk qdx5 followed by 0.5 mpk qdx23, sc): 5 ± 1 mm^3
Tumor volume (Mean ± SEM) (Day 20, Group 8: 1.4 mg/kg 10-days ON 4-days OFF x 2 cycles, sc): 6 ± 2 mm^3
Tumor volume (Mean ± SEM) (Day 22, Group 2: 1 mg/kg qdx28, sc): 2 ± 1 mm^3
Tumor volume (Mean ± SEM) (Day 22, Group 3: 0.5 mg/kg qdx28, sc): 6 ± 2 mm^3
Tumor volume (Mean ± SEM) (Day 22, Group 4: 1.4 mg/kg 5-days ON 2-days OFF x 4 cycles, sc): 0 ± 0 mm^3
Tumor volume (Mean ± SEM) (Day 22, Group 5: 0.7 mg/kg 5-days ON 2-days OFF x 4 cycles, sc): 2 ± 1 mm^3
Tumor volume (Mean ± SEM) (Day 22, Group 6: 3 mpk qdx5 followed by 1 mpk qdx23, sc): 3 ± 1 mm^3
Tumor volume (Mean ± SEM) (Day 22, Group 7: 1.5 mpk qdx5 followed by 0.5 mpk qdx23, sc): 6 ± 1 mm^3
Tumor volume (Mean ± SEM) (Day 22, Group 8: 1.4 mg/kg 10-days ON 4-days OFF x 2 cycles, sc): 5 ± 2 mm^3
Tumor volume (Mean ± SEM) (Day 25, Group 2: 1 mg/kg qdx28, sc): 5 ± 1 mm^3
Tumor volume (Mean ± SEM) (Day 25, Group 3: 0.5 mg/kg qdx28, sc): 6 ± 1 mm^3
Tumor volume (Mean ± SEM) (Day 25, Group 4: 1.4 mg/kg 5-days ON 2-days OFF x 4 cycles, sc): 0 ± 0 mm^3
Tumor volume (Mean ± SEM) (Day 25, Group 5: 0.7 mg/kg 5-days ON 2-days OFF x 4 cycles, sc): 2 ± 1 mm^3
Tumor volume (Mean ± SEM) (Day 25, Group 6: 3 mpk qdx5 followed by 1 mpk qdx23, sc): 2 ± 1 mm^3
Tumor volume (Mean ± SEM) (Day 25, Group 7: 1.5 mpk qdx5 followed by 0.5 mpk qdx23, sc): 4 ± 1 mm^3
Tumor volume (Mean ± SEM) (Day 25, Group 8: 1.4 mg/kg 10-days ON 4-days OFF x 2 cycles, sc): 5 ± 2 mm^3
Tumor volume (Mean ± SEM) (Day 27, Group 2: 1 mg/kg qdx28, sc): 6 ± 2 mm^3
Tumor volume (Mean ± SEM) (Day 27, Group 3: 0.5 mg/kg qdx28, sc): 7 ± 1 mm^3
Tumor volume (Mean ± SEM) (Day 27, Group 4: 1.4 mg/kg 5-days ON 2-days OFF x 4 cycles, sc): 0 ± 0 mm^3
Tumor volume (Mean ± SEM) (Day 27, Group 5: 0.7 mg/kg 5-days ON 2-days OFF x 4 cycles, sc): 1 ± 1 mm^3
Tumor volume (Mean ± SEM) (Day 27, Group 6: 3 mpk qdx5 followed by 1 mpk qdx23, sc): 2 ± 1 mm^3
Tumor volume (Mean ± SEM) (Day 27, Group 7: 1.5 mpk qdx5 followed by 0.5 mpk qdx23, sc): 4 ± 1 mm^3
Tumor volume (Mean ± SEM) (Day 27, Group 8: 1.4 mg/kg 10-days ON 4-days OFF x 2 cycles, sc): 6 ± 2 mm^3
Tumor volume (Mean ± SEM) (Day 29, Group 2: 1 mg/kg qdx28, sc): 17 ± 11 mm^3
Tumor volume (Mean ± SEM) (Day 29, Group 3: 0.5 mg/kg qdx28, sc): 13 ± 3 mm^3
Tumor volume (Mean ± SEM) (Day 29, Group 4: 1.4 mg/kg 5-days ON 2-days OFF x 4 cycles, sc): 1 ± 1 mm^3
Tumor volume (Mean ± SEM) (Day 29, Group 5: 0.7 mg/kg 5-days ON 2-days OFF x 4 cycles, sc): 2 ± 1 mm^3
Tumor volume (Mean ± SEM) (Day 29, Group 6: 3 mpk qdx5 followed by 1 mpk qdx23, sc): 5 ± 3 mm^3
Tumor volume (Mean ± SEM) (Day 29, Group 7: 1.5 mpk qdx5 followed by 0.5 mpk qdx23, sc): 10 ± 3 mm^3
Tumor volume (Mean ± SEM) (Day 29, Group 8: 1.4 mg/kg 10-days ON 4-days OFF x 2 cycles, sc): 17 ± 5 mm^3
Tumor volume (Mean ± SEM) (Day 32, Group 2: 1 mg/kg qdx28, sc): 92 ± 47 mm^3
Tumor volume (Mean ± SEM) (Day 32, Group 3: 0.5 mg/kg qdx28, sc): 45 ± 9 mm^3
Tumor volume (Mean ± SEM) (Day 32, Group 4: 1.4 mg/kg 5-days ON 2-days OFF x 4 cycles, sc): 13 ± 7 mm^3
Tumor volume (Mean ± SEM) (Day 32, Group 5: 0.7 mg/kg 5-days ON 2-days OFF x 4 cycles, sc): 20 ± 12 mm^3
Tumor volume (Mean ± SEM) (Day 32, Group 6: 3 mpk qdx5 followed by 1 mpk qdx23, sc): 51 ± 35 mm^3
Tumor volume (Mean ± SEM) (Day 32, Group 7: 1.5 mpk qdx5 followed by 0.5 mpk qdx23, sc): 44 ± 12 mm^3
Tumor volume (Mean ± SEM) (Day 32, Group 8: 1.4 mg/kg 10-days ON 4-days OFF x 2 cycles, sc): 73 ± 19 mm^3
Tumor volume (Mean ± SEM) (Day 34, Group 2: 1 mg/kg qdx28, sc): 190 ± 81 mm^3
Tumor volume (Mean ± SEM) (Day 34, Group 3: 0.5 mg/kg qdx28, sc): 121 ± 20 mm^3
Tumor volume (Mean ± SEM) (Day 34, Group 4: 1.4 mg/kg 5-days ON 2-days OFF x 4 cycles, sc): 37 ± 21 mm^3
Tumor volume (Mean ± SEM) (Day 34, Group 5: 0.7 mg/kg 5-days ON 2-days OFF x 4 cycles, sc): 32 ± 16 mm^3
Tumor volume (Mean ± SEM) (Day 34, Group 6: 3 mpk qdx5 followed by 1 mpk qdx23, sc): 114 ± 79 mm^3
Tumor volume (Mean ± SEM) (Day 34, Group 7: 1.5 mpk qdx5 followed by 0.5 mpk qdx23, sc): 112 ± 24 mm^3
Tumor volume (Mean ± SEM) (Day 34, Group 8: 1.4 mg/kg 10-days ON 4-days OFF x 2 cycles, sc): 168 ± 43 mm^3
Tumor volume (Mean ± SEM) (Day 36, Group 2: 1 mg/kg qdx28, sc): 454 ± 212 mm^3
Tumor volume (Mean ± SEM) (Day 36, Group 3: 0.5 mg/kg qdx28, sc): 285 ± 42 mm^3
Tumor volume (Mean ± SEM) (Day 36, Group 4: 1.4 mg/kg 5-days ON 2-days OFF x 4 cycles, sc): 100 ± 47 mm^3
Tumor volume (Mean ± SEM) (Day 36, Group 5: 0.7 mg/kg 5-days ON 2-days OFF x 4 cycles, sc): 125 ± 63 mm^3
Tumor volume (Mean ± SEM) (Day 36, Group 6: 3 mpk qdx5 followed by 1 mpk qdx23, sc): 288 ± 174 mm^3
Tumor volume (Mean ± SEM) (Day 36, Group 7: 1.5 mpk qdx5 followed by 0.5 mpk qdx23, sc): 364 ± 69 mm^3
Tumor volume (Mean ± SEM) (Day 36, Group 8: 1.4 mg/kg 10-days ON 4-days OFF x 2 cycles, sc): 479 ± 121 mm^3
Tumor volume (Mean ± SEM) (Day 39, Group 2: 1 mg/kg qdx28, sc): 1109 ± 398 mm^3
Tumor volume (Mean ± SEM) (Day 39, Group 3: 0.5 mg/kg qdx28, sc): 592 ± 61 mm^3
Tumor volume (Mean ± SEM) (Day 39, Group 4: 1.4 mg/kg 5-days ON 2-days OFF x 4 cycles, sc): 238 ± 72 mm^3
Tumor volume (Mean ± SEM) (Day 39, Group 5: 0.7 mg/kg 5-days ON 2-days OFF x 4 cycles, sc): 242 ± 114 mm^3
Tumor volume (Mean ± SEM) (Day 39, Group 6: 3 mpk qdx5 followed by 1 mpk qdx23, sc): 723 ± 345 mm^3
Tumor volume (Mean ± SEM) (Day 39, Group 7: 1.5 mpk qdx5 followed by 0.5 mpk qdx23, sc): 904 ± 174 mm^3
Tumor volume (Mean ± SEM) (Day 39, Group 8: 1.4 mg/kg 10-days ON 4-days OFF x 2 cycles, sc): 945 ± 260 mm^3
Tumor volume (Mean ± SEM) (Day 41, Group 3: 0.5 mg/kg qdx28, sc): 1718 ± 136 mm^3
Tumor volume (Mean ± SEM) (Day 41, Group 4: 1.4 mg/kg 5-days ON 2-days OFF x 4 cycles, sc): 420 ± 129 mm^3
Mice completely tumor free on D67 ("cured") (Group 5: 0.7 mpk S.C. 5-days ON 2-days OFF×4 cycles, 8 mice per group): Four
